From DBAASP
≈ marks a conversion by molar mass, not a printed value. Each block holds one compound with its values, some of them ahead of it.

How the values were obtained:
Test in all cases: ≥ marks a high value that may be exact or a test limit, other limits are often not marked, values filed in µg/mL are converted to µM
[1] = test system: Lacticaseibacillus rhamnosus 1.0911
[2] = test system: Escherichia coli K99
[3] = test system: Staphylococcus aureus ATCC 43300
[4] = test system: Salmonella enterica subsp. enterica serovar Pullorum C79-13
[5] = test system: Lacticaseibacillus rhamnosus 7469
[6] = test system: Lacticaseibacillus rhamnosus 1.0385
[7] = test system: Staphylococcus aureus ATCC 29213
[8] = test system: Pseudomonas aeruginosa ATCC 27853
[9] = test system: Escherichia coli K88
[10] = test system: Escherichia coli ATCC 25922
[11] = test system: Salmonella enterica subsp. enterica serovar Typhimurium ATCC 14028
[12] = test system: Staphylococcus aureus ATCC 25923
[13] = test system: Lacticaseibacillus rhamnosus 1.0936
[14] = test system: Escherichia coli UB1005
[15] = test system: Salmonella enterica subsp. enterica serovar Typhimurium C77-31
[16] = test system: Lactiplantibacillus plantarum 8014
[17] = test system: Staphylococcus aureus ATCC BAA-2312
[18] = test system: Staphylococcus aureus ATCC 12600
[19] = test system: Enterococcus faecium ATCC 19434
[20] = test system: Bacillus megaterium Bm11
[21] = test system: Klebsiella pneumoniae ATCC BAA-2814
[22] = test system: Candida parapsilosis ATCC 22019
[23] = test system: Escherichia coli ATCC 35218
[24] = test system: Enterococcus faecalis ATCC 51299
[25] = test system: Klebsiella pneumoniae ATCC 49472
[26] = test system: Acinetobacter baumannii ATCC 19606
[27] = test system: Staphylococcus epidermidis ATCC 12228
[28] = test system: Pseudomonas aeruginosa FADDI-PA070
[29] = test system: Staphylococcus aureus NRS 17
[30] = test system: Staphylococcus aureus VRSA10
[31] = test system: Klebsiella pneumoniae ATCC 700603
[32] = test system: Staphylococcus aureus VRSA1
[33] = test system: Streptococcus pneumoniae ATCC 700677
[34] = test system: Staphylococcus aureus NRS 1
[35] = test system: Klebsiella pneumoniae ATCC BAA-2146
[36] = test system: Staphylococcus aureus ATCC BAA-1683
[37] = test system: Escherichia coli
[38] = test system: Escherichia coli TOP 10
[39] = test system: Aeromonas salmonicida
[40] = test system: Salmonella enterica subsp. enterica serovar Typhimurium ATCC 14028s
[41] = test system: Staphylococcus epidermidis C621
[42] = test system: Pseudomonas aeruginosa K799
[43] = test system: Salmonella enterica serovar typhimurium MS7953s
[44] = test system: Vibrio anguillarum
[45] = test system: Pseudomonas aeruginosa Z61

Structure (SMILES): C[C@@H]1NC(=O)[C@@H](N)CSSC[C@@H](C(=O)O)NC(=O)[C@H](Cc2ccccc2)NC(=O)[C@H](Cc2ccc(O)cc2)NC(=O)[C@H](CO)NC1=O [CASYFC]
MIC [1]: ≥ 64 µM | MIC [2]: ≥ 64 µM | MIC [3]: > 64 µM | MIC [4]: ≥ 64 µM | MIC [5]: ≥ 64 µM | MIC [6]: ≥ 64 µM | MIC [7]: > 64 µM | MIC [8]: > 64 µM | MIC [9]: ≥ 64 µM | MIC [10]: > 64 µM | MIC [11]: > 64 µM | MIC [12]: > 64 µM | MIC [13]: ≥ 64 µM | MIC [14]: ≥ 64 µM | MIC [15]: ≥ 64 µM | MIC [16]: ≥ 64 µM

Structure (SMILES): CC(C)C[C@H](NC(=O)[C@H](CC(C)C)NC(=O)[C@H](CCCN=C(N)N)NC(=O)[C@H](Cc1c[nH]c2ccccc12)NC(=O)[C@H](Cc1c[nH]c2ccccc12)NC(=O)[C@@H](N)CCCCN)C(=O)N[C@@H](Cc1cnc[nH]1)C(=O)N[C@@H](CCCCN)C(=O)N[C@@H](CCCCN)C(=O)N[C@@H](CCC(N)=O)C(N)=O [KWWRLLHKKQ]
MIC [36]: ≥ 351 µM | MIC [37]: 351 µM (≈ 500 µg/mL) | MIC [12]: 351 µM (≈ 500 µg/mL)

Continued, values first:

MIC [17]: 31.2 µM (≈ 60.8 µg/mL) | MIC [18]: 31.2 µM (≈ 60.8 µg/mL) | MIC [19]: ≥ 62.5 µM | MIC [20]: 0.78 µM (≈ 1.52 µg/mL) | MIC [21]: ≥ 62.5 µM | MIC [22]: 25 µM (≈ 48.6 µg/mL) | MIC [23]: 31.2 µM (≈ 60.8 µg/mL) | MIC [24]: ≥ 250 µM | MIC [8]: 62.5 µM (≈ 122 µg/mL) | MIC [25]: ≥ 62.5 µM | MIC [10]: 6.25 µM (≈ 12.2 µg/mL) | MIC [26]: 6.25 µM (≈ 12.2 µg/mL) | MIC [27]: 6.25 µM (≈ 12.2 µg/mL) | MIC [11]: 62.5 µM (≈ 122 µg/mL) | MIC [12]: 12.5 µM (≈ 24.3 µg/mL)
Structure (SMILES): CC[C@H](C)[C@H](NC(=O)CN)C(=O)N[C@@H](Cc1ccccc1)C(=O)N[C@@H](CC(=O)O)C(=O)N[C@H](C(=O)N[C@@H](CC(C)C)C(=O)N[C@@H](CCCCN)C(=O)N[C@@H](CC(N)=O)C(=O)N[C@@H](CC(C)C)C(=O)N[C@@H](C)C(=O)N[C@@H](CCCCN)C(=O)NCC(=O)N[C@H](C(=O)N[C@H](C(=O)N[C@H](C(=O)N[C@@H](CO)C(=O)N[C@@H](CC(C)C)C(=O)N[C@@H](C)C(=O)N[C@@H](CO)C(N)=O)[C@@H](C)O)[C@@H](C)CC)C(C)C)C(C)C [GIFDVLKNLAKGVITSLAS]

MIC [28]: 12.8 µM (≈ 40 µg/mL) | MIC [3]: > 12.8 µM | MIC [29]: 12.8 µM (≈ 40 µg/mL) | MIC [30]: 12.8 µM (≈ 40 µg/mL) | MIC [31]: 9.05 µM (≈ 28.3 µg/mL) | MIC [8]: > 12.8 µM | MIC [32]: 12.8 µM (≈ 40 µg/mL) | MIC [10]: 4.53 µM (≈ 14.1 µg/mL) | MIC [33]: 12.8 µM (≈ 40 µg/mL) | MIC [26]: 0.566 µM (≈ 1.77 µg/mL) | MIC [34]: 12.8 µM (≈ 40 µg/mL) | MIC [35]: 2.26 µM (≈ 7.06 µg/mL)
Structure (SMILES): CC[C@H](C)[C@H](N)C(=O)N[C@@H](CC(=O)O)C(=O)N[C@@H](Cc1c[nH]c2ccccc12)C(=O)N[C@@H](CCCCN)C(=O)N[C@@H](CCCCN)C(=O)N[C@H](C(=O)N[C@@H](CC(=O)O)C(=O)N[C@@H](Cc1c[nH]c2ccccc12)C(=O)N[C@@H](CCCCN)C(=O)N[C@@H](CCCCN)C(=O)N[C@H](C(=O)N[C@@H](CO)C(=O)N[C@@H](CCCCN)C(=O)N[C@@H](CCCCN)C(=O)N[C@H](C(=O)N[C@@H](CO)C(=O)N[C@@H](CCCCN)C(=O)N[C@H](C(=O)N[C@@H](CCSC)C(=O)N[C@@H](CC(C)C)C(=O)N[C@@H](CCCCN)C(=O)N[C@@H](C)C(=O)N[C@@H](CO)C(=O)N[C@@H](CCCCN)C(=O)N[C@@H](Cc1ccccc1)C(=O)N[C@@H](CC(C)C)C(N)=O)C(C)C)[C@@H](C)O)C(C)C)C(C)C [IDWKKVDWKKVSKKTSKVMLKASKFL]

MIC [38]: ≥ 57.6 µM
Structure (SMILES): CC[C@H](C)[C@H](NC(=O)[C@H](CCC(=O)O)NC(=O)[C@H](CCCCN)NC(=O)[C@H](CCC(=O)O)NC(=O)[C@@H](NC(=O)[C@H](CO)NC(=O)[C@H](CCC(N)=O)NC(=O)[C@@H](NC(=O)[C@@H]1CCCN1C(=O)[C@H](CC(=O)O)NC(=O)[C@H](C)NC(=O)[C@H](CCSC)NC(=O)[C@@H](NC(=O)[C@H](Cc1ccccc1)NC(=O)[C@@H](N)CC(C)C)[C@@H](C)O)[C@@H](C)CC)[C@@H](C)CC)C(N)=O [LFTMADPIQSIEKEI]

MIC [39]: 10.9 µM (≈ 32 µg/mL) | MIC [40]: 21.7 µM (≈ 64 µg/mL) | MIC [41]: 21.7 µM (≈ 64 µg/mL) | MIC [42]: 21.7 µM (≈ 64 µg/mL) | MIC [43]: 2.72 µM (≈ 8 µg/mL) | MIC [44]: 21.7 µM (≈ 64 µg/mL) | MIC [45]: 21.7 µM (≈ 64 µg/mL)
Structure (SMILES): CC[C@H](C)[C@H](NC(=O)[C@@H](N)CO)C(=O)NCC(=O)N[C@@H](CO)C(=O)N[C@@H](C)C(=O)N[C@@H](Cc1ccccc1)C(=O)N[C@@H](CCCCN)C(=O)N[C@@H](CCCCN)C(=O)N[C@@H](C)C(=O)N[C@@H](C)C(=O)N[C@@H](Cc1cnc[nH]1)C(=O)N[C@H](C(=O)NCC(=O)N[C@@H](CCCCN)C(=O)N[C@@H](Cc1cnc[nH]1)C(=O)N[C@H](C(=O)NCC(=O)N[C@@H](CCCCN)C(=O)N[C@@H](C)C(=O)N[C@@H](C)C(=O)N[C@@H](CC(C)C)C(=O)NCC(=O)N[C@@H](C)C(=O)N[C@@H](C)C(=O)N[C@@H](C)C(=O)N[C@@H](CCCN=C(N)N)C(=O)N[C@@H](CCCN=C(N)N)C(=O)N[C@@H](CCCN=C(N)N)C(=O)N[C@@H](CCCCN)C(=O)O)C(C)C)C(C)C [SIGSAFKKAAHVGKHVGKAALGAAARRRK]
